Results reported in US20160228056A1, “DYNAMIC POSITRON EMISSION TOMOGRAPHY IMAGING” (THE GENERAL HOSPITAL CORPORATION, priority 2013, published 2016).
“Also recorded” adds a separate entry of the source.

What was measured:
[1] = blood radioactivity during the FDG infusion protocol; format: in vivo, human; conditions: constant infusion
Method: FDG was administered in saline intravenously at a constant infusion rate of 0.01 ml/s for 90 minutes to healthy subjects (1 female/2 males, mean age 32±2) using a Medrad® Spectra Solaris syringe pump. In a separate experiment, FDG was administered as a traditional bolus injection (5 mCi administered in 5 mL saline over ˜30 seconds) during rest for 3 additional healthy subjects (1 female/2 males, mean age 29±3). Venous blood samples were collected in all subjects during scanning, then centrifuged to obtain plasma, and aliquoted in a gamma counter that had been precalibrated to the PET scanner to measure the venous activity during the experiment. The fPET-FDG data were binned into 90 one-minute frames. The reconstructed volume was down-sampled to 76 slices with 128×128 voxels (2.5×2.5×2.5 mm^3) with one minute time frames. For bolus FDG comparison studies, data were processed as a single frame (40-70 minutes post injection) and analogously down-sampled. Standardized Uptake Values (SUVs) were normalized to gray matter uptake for each subject.
FDG in saline solution was administered intravenously at a constant infusion rate of 0.01 ml/s for 90 min to healthy subjects (1 female/2 males, mean age 32±2 years) using a Medrad® Spectra Solaris syringe pump (initial activity=5±0.6 mCi). […]

glucose utilization = assay: fPET-FDG constant infusion with checkerboard visual stimulation; format: in vivo, human; conditions: for mean percent increase in glucose utilization derived from fPET-FDG: fixed-effect group analysis, three subjects
Method: To interrogate dynamic metabolic information, a 90-minute constant FDG infusion paradigm was used (0.01 ml/s, 5 mCi total calculated to the beginning of infusion), during which we periodically presented a conventional visual stimulus consisting of an 8-Hz counterphase flickering “checkerboard” pattern as shown in FIG. 2A. The stimulus was projected on a screen mounted at the end of the magnet bore, and subjects (n=3) viewed the stimulus through a mirror. We used three different stimuli: two full-field checkerboard stimulus periods for a duration of 10 minutes each, and two hemi-field checkerboard stimulus periods (right and left) for a duration of 5 minutes each (FIG. 2A). This design allowed us to confirm that the observed metabolic signal changes were specific to the stimuli, and also that multiple stimuli (four in this case) can be measured dynamically during a single scan of a single subject. In addition to our dynamic analysis, the fPET-FDG data were also binned into 90 one-minute frames using previously published methods (see, Catana et al., J Nucl Med 51, 1431, September, 2010; and Catana et al., J Nucl Med 52, 154, January 2011). During the fPET-FDG scan, functional MR data were simultaneously collected using a Siemens BrainPET scanner. BOLD data were collected prior to and during the first 10 minute full-field checkerboard and the two hemi-field checkerboard stimuli; and ASL data were collected prior to and during the second 10 minute full-field checkerboard stimulus.
FDG was delivered at a constant rate during our fPET studies. At steady state, the rate of FDG utilization in a given voxel is proportional to the slope of the radioactivity accumulated in that voxel. As shown in Example 1 below, during steady state the slope of the voxelwise FDG uptake from fPET can be represented as: slope=(CMRglu*LC*Cp)/Ca^o where LC is the lumped constant which converts FDG metabolic rate to glucose metabolic rate, Ca^o is a measurement of plasma glucose (see, Reivich et al., Circ Res 44, 127, January 1979; and Phelps et al., Ann Neurol 6, 371, November 1979), and Cp is the plasma radioactivity concentration (which is controlled through constant infusion). The slope is an approximation for (K1k3)/(k2+k3) scaled by Cp and is thus analogous to Ki (the influx rate constant) determined by a linear approximation of a bolus FDG injection by Patlak analysis (see, Patlak et al., J Cereb Blood Flow Metab 3, 1, Mar. 1983; and Lucignani et al., J Nucl Med 34, 360, March 1993). Changes in slope are thus proportional to changes in CMRglu. By taking the derivative of the fPET-FDG uptake time course estimated using pairwise subtraction of the 90 one minute frames to form a relative index of uptake rate, we generated a time series akin to a BOLD fMRI signal to represent change in CMRglu. We then used fMRI software, FSL's (FMRIB Software Library) FEAT (see Jenkinson et al., Neuroimage 62, 782, Aug. 15, 2012) to process the fPET-FDG data using a generalized linear model (GLM) with 3 different explanatory variables (EV): (i) 2 blocks of the 10 minutes full-field checkerboard paradigm (EV1), (ii) a 5 minute block of left hemi-field checkerboard (EV2) and (iii) a 5 minute block of right hemi-field checkerboard (EV3). Confirmation of functional specificity is inherent in our analyses given that both hemispheres of the visual system respond equally to the full-field checkerboard whereas the contralateral hemisphere has a higher response to a hemi-field checkerboard. […]

[2] = cited from earlier work; for K1 (rate constant, transport from blood to brain) / k2 (rate constant, transport back from brain to blood) / k3 (rate constant, phosphorylation in the brain tissue): two-tissue compartment model (Reivich et al., 1985)
cerebral blood flow = assay: non-human primate hypercapnia experiment with fPET-FDG and ASL CBF; format: in vivo, baboon
Text: To assess the influence of cerebral blood flow changes on FDG signal we administered inhaled carbon dioxide, a strong vasodilatory stimulus, to two baboons (2 females, ˜10-12 kg) simultaneously with fPET-FDG and arterial spin labeling (ASL) MRI for CBF measurements. The protocol was approved by the Institutional Animal Care and Use Committee. Animals were anesthetized with isoflurane (1%) and mechanically ventilated. Physiological parameters were continuously monitored and maintained within the normal range. All images were acquired on the same 3T Siemens TIM-Trio with a BrainPET insert as the human data, using a custom PET-compatible 8-channel array coil. Similar to the human protocol, ˜5 mCi of FDG was continuously infused intravenously at a rate of 0.01 mL/sec for each study. PET data were stored in list mode and binned into 1-minute frames. Dual echo pseudo-continuous arterial spin labeling (pCASL) data were acquired simultaneously (TR/TE1/TE2=4000/12/30 ms, 2.2×2.2×4 mm) (Wey et al., 2010). During a 50 minute dynamic fPET/fMRI scan, a hypercapnic challenge (7% CO2) was given for 10 minutes between 30 and 40 minutes. All data were motion and slice-time corrected, skull stripped, spatially smoothed and registered to a standard NHP atlas. Percent changes in gray matter CBF were calculated.

[3] = 10 minute full checkerboard, average of 3 subjects, exponential fit

Compound | blood radioactivity during the infusion protocol, maximum ([1]; venous plasma blood) | blood radioactivity during the infusion protocol, average ([1]; whole blood) | tau of the exponential decrease in FDG signal after the end of the activation (glucose utilization; [3]) | tau of the exponential increase in FDG signal after the beginning of the activation (glucose utilization; [3]) | mean percent increase in glucose utilization derived from fPET-FDG (glucose utilization; full-field checkerboard vs baseline) | mean percent increase in glucose utilization derived from fPET-FDG (glucose utilization; left hemi-field checkerboard vs baseline) | mean percent increase in glucose utilization derived from fPET-FDG (glucose utilization; right hemi-field checkerboard vs baseline) | extraction fraction ([2]; brain) | K1 (rate constant, transport from blood to brain) [2] | k2 (rate constant, transport back from brain to blood) [2] | k3 (rate constant, phosphorylation in the brain tissue) [2] | CBF increase on average (cerebral blood flow; gray matter, ASL, 10 minutes of hypercapnia (7% CO2), anesthetized baboon) | effect on FDG uptake rate / FDG signal slope (cerebral blood flow; hypercapnia (7% CO2) between 30 and 40 minutes of 50 minute FDG infusion, baboon) | CBF change at maximum (cerebral blood flow; hypercapnia stimulus (7% CO2), baboon)
2-[^18F]-fluoro-2-deoxyglucose [FDG] | 4 kBq/cc | 4 kBq/cc | 5.6 min | 4.9 min | 25% | 26% | 28% | 4% | 0.1 mL/min | 0.15 min⁻¹ | 0.08 min⁻¹ |  |  | 
O=C=O [carbon dioxide] |  |  |  |  |  |  |  |  |  |  |  | 70% | did not alter FDG uptake rate; also recorded: did not induce any measurable change | 120%
OCC1OC(O)CC(O)C1O (centres unmarked) [deoxyglucose] |  |  |  |  |  |  |  |  | ~0.1 mL/min | ~0.15 min⁻¹ | ~0.08 min⁻¹ |  |  | 
